Measurements from patent publication US20150315188A1, “COMPOUNDS AND METHODS FOR TREATMENT OF HYPERTENSION” (MEDIVATION TECHNOLOGIES, INC., priority 2012, published 2015).

Experiments:
Set-up in all cases: purchased Milipore (Millipore)
[1] = target: T1, Human adrenergic α2B receptor (Homo sapiens, UniProt P18089); assay: Radioligand binding, adrenergic α2B (Protocol Group B); settings: Protocol Group B; for inhibition at 0.01 µM / Percentage inhibition of ligand binding, Adrenergic α2B (10 nM): 10 nM compound; for inhibition at 0.01 µM: read-out: Percentage inhibition of ligand binding, Adrenergic α2B (10 nM); for inhibition at 0.03 µM / Percentage inhibition of ligand binding, Adrenergic α2B (30 nM): 30 nM compound; for inhibition at 0.03 µM: read-out: Percentage inhibition of ligand binding, Adrenergic α2B (30 nM); for inhibition at 0.1 µM / Percentage inhibition of ligand binding, Adrenergic α2B (0.1 μM): 0.1 μM compound; for inhibition at 0.1 µM: read-out: Percentage inhibition of ligand binding, Adrenergic α2B (0.1 μM); for Percentage inhibition of ligand binding, Adrenergic α2B (10 nM): 0.01 µM; for Percentage inhibition of ligand binding, Adrenergic α2B (30 nM): 0.03 µM
T1 sequence (P18089 1-450): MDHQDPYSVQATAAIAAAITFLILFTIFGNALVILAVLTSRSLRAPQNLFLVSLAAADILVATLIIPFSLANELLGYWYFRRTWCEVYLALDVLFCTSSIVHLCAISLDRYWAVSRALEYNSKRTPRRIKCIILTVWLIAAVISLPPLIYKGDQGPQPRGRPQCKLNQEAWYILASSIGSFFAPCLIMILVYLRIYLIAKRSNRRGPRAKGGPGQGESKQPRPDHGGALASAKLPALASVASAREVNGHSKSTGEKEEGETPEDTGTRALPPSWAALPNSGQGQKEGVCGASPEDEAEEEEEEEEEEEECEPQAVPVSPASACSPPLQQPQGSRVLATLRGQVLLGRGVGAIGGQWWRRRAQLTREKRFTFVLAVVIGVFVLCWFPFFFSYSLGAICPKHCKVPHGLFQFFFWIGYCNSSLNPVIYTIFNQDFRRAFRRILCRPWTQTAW
Summary of the method: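 Compounds at various concentrations in 1% DMSO were tested on recombinant membranes in Tris-HCl pH 7.4 buffer containing MgCl2, CaCl2 and 0.2% BSA.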

[2] = target: T2, Human adrenergic α2A receptor (Homo sapiens, UniProt P08913); assay: Radioligand binding, adrenergic α2A (Protocol Group B); settings: Protocol Group B; for inhibition at 0.1 µM / Percentage inhibition of ligand binding, Adrenergic α2A (0.1 μM): 0.1 μM compound; for inhibition at 0.1 µM: read-out: Percentage inhibition of ligand binding, Adrenergic α2A (0.1 μM); for inhibition at 0.3 µM / Percentage inhibition of ligand binding, Adrenergic α2A (0.3 μM): 0.3 μM compound; for inhibition at 0.3 µM: read-out: Percentage inhibition of ligand binding, Adrenergic α2A (0.3 μM)
T2 sequence (P08913 1-465): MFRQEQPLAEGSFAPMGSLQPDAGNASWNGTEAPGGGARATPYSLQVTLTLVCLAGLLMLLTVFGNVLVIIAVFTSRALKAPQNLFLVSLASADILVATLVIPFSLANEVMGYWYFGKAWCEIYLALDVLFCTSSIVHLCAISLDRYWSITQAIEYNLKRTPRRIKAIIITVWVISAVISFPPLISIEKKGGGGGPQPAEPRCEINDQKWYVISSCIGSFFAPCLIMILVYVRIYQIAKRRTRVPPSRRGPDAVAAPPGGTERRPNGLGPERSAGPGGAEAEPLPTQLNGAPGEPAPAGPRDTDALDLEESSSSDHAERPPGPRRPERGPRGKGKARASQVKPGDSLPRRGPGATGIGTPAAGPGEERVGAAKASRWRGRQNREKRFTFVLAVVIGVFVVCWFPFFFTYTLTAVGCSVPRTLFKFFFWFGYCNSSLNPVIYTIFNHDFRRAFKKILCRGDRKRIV
Summary of the method: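 Compounds (1% DMSO vehicle, various concentrations) competed against 2 nM [^3H]MK-912 on recombinant receptor membranes for 60 min at 25° C, Tris-HCl pH 7.4 buffer with Mg2+, Ca2+, BSA. Bound radioligand filtered and counted; 10 μM rauwolscine set nonspecific binding. Values: percent inhibition of specific binding or estimated Ki.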

[3] = target: T3, Human adrenergic α1B receptor (Homo sapiens, UniProt P35368); assay: Radioligand binding, adrenergic α1B (Protocol Group B); settings: Protocol Group B; for inhibition at 0.1 µM / Percentage inhibition of ligand binding, Adrenergic α1B (0.1 μM): 0.1 μM compound; for inhibition at 0.1 µM: read-out: Percentage inhibition of ligand binding, Adrenergic α1B (0.1 μM); for inhibition at 0.3 µM / Percentage inhibition of ligand binding, Adrenergic α1B (0.3 μM): 0.3 μM compound; for inhibition at 0.3 µM: read-out: Percentage inhibition of ligand binding, Adrenergic α1B (0.3 μM)
T3 sequence (P35368 1-520): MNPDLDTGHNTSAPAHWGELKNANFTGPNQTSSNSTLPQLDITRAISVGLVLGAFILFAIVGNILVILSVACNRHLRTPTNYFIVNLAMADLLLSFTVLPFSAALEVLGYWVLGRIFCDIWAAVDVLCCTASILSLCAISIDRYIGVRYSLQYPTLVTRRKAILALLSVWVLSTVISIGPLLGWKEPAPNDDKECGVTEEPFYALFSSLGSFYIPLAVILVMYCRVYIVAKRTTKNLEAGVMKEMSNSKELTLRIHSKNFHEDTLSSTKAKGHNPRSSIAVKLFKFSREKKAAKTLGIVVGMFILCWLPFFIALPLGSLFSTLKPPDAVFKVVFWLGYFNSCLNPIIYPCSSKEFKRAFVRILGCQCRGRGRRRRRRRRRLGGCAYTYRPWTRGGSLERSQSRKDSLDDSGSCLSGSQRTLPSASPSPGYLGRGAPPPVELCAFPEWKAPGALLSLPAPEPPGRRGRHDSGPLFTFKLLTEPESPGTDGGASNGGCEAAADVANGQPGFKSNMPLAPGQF
Summary of the method: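 Values are percent inhibition of specific [3H]prazosin (0.3 nM) binding or estimated Ki, from filtration counting. Human α1B recombinant membranes, Tris-HCl pH 7.4 buffer with MgCl2 and EDTA, 60 min at 25 °C, 1% DMSO vehicle; 10 μM prazosin defined nonspecific binding.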

| inhibition at 0.01 µM [1] [%] | inhibition at 0.03 µM [1] [%] | inhibition at 0.1 µM [1] [%] | inhibition at 0.1 µM [2] [%] | inhibition at 0.3 µM [2] [%] | inhibition at 0.1 µM [3] [%] | inhibition at 0.3 µM [3] [%] | Percentage inhibition of ligand binding, Adrenergic α2B (10 nM) [1] [%] | Percentage inhibition of ligand binding, Adrenergic α2B (30 nM) [1] [%] | Percentage inhibition of ligand binding, Adrenergic α2B (0.1 μM) [1] [%] | Percentage inhibition of ligand binding, Adrenergic α2A (0.1 μM) [2] [%] | Percentage inhibition of ligand binding, Adrenergic α2A (0.3 μM) [2] [%] | Percentage inhibition of ligand binding, Adrenergic α1B (0.1 μM) [3] [%] | Percentage inhibition of ligand binding, Adrenergic α1B (0.3 μM) [3] [%] | SMILES |
| --- | --- | --- | --- | --- | --- | --- | --- | --- | --- | --- | --- | --- | --- | --- |
| 4 | -12 | -13 | 10 | 15 | 10 | 11 |  |  |  |  |  |  |  | CN1CCc2c(c3c(Cl)ccc(Cl)c3n2CC(O)c2cccnc2)C1 (stereo not shown) [Compound No. 17, 2-(6,9-dichloro-2-methyl-3,4-dihydro-1H-pyrido[4,3-b]indol-5 (2H)-yl)-1-(pyridin-3-yl)ethanol] |
| 81 | 99 | 101 | 71 | 87 | 74 | 90 |  |  |  |  |  |  |  | Cc1ccc2c(c1)c1c(n2CC(O)c2ccncc2F)CCN2CCCC12 (stereo not shown) [compound 14, 1-(3-fluoropyridin-4-yl)-2-(10-methyl-2,3,5,6-tetrahydro-1H-indolizino[7,8-b]indol-7 (11cH)-yl)ethanol] |
|  |  |  |  |  |  |  | 54 | 81 | 95 | 12 | 38 | 20 | 51 | OC(Cn1c2c(c3cc(F)ccc31)C1CCCN1CC2)c1ccncc1 (stereo not shown) [compound 18, 2-(10-fluoro-2,3,5,6-tetrahydro-1H-indolizino[7,8-b]indol-7 (11cH)-yl)-1-(pyridin-4-yl)ethanol] |
|  |  |  |  |  |  |  | 81 | 95 | 100 | 59 | 79 | 77 | 91 | Cc1cc(C)c2c(c1)c1c(n2CC(C)(O)c2ccncc2)CCN2CCCC12 (stereo not shown) [compound 19, 1-(8,10-dimethyl-2,3,5,6-tetrahydro-1H-indolizino[7,8-b]indol-7(11cH)-yl)-2-(pyridin-4-yl)propan-2-ol] |
| 6 | 35 | 54 | 12 | 23 | 10 | 15 |  |  |  |  |  |  |  | CN1CCc2c(c3cccc(Cl)c3n2CC(O)c2cccnc2)C1 (stereo not shown) [compound 20, 2-(6-chloro-2-methyl-3,4-dihydro-1H-pyrido[4,3-b]indol-5-(2H)-yl)-1-(pyridin-3-yl)ethanol] |
| 85 | 96 | 96 | 78 | 89 | 84 | 95 |  |  |  |  |  |  |  | Cc1cc2c3c(n(CC(O)c4ccncc4)c2cc1Cl)CCN1CCCC31 (stereo not shown) [compound 21, 2-(8-chloro-9-methyl-1,2,3,4,5,10c-hexahydro-3a, 6-diaza-cyclopenta[c]fluoren-6-yl)-1-pyridin-4-yl-ethanol] |
| 30 | 61 | 72 | 7 | 15 | 11 | 30 |  |  |  |  |  |  |  | Cc1ccc2c(c1)c1c(n2CC(O)c2cc[n+]([O-])cc2)CCN2CCCC12 (stereo not shown) [compound 22, 4-(1-hydroxy-2-(10-methyl-2,3,5,6-tetrahydro-1H-indolizino[7,8-b]indol-7 (11cH)-yl)ethyl)pyridine 1-oxide] |
| -25 | 0 | 29 | -15 | 4 | -3 | 15 |  |  |  |  |  |  |  | Cc1ccc2c(c1)c1c(n2CC(O)c2cccnc2)C(O)CN(C)C1 (stereo not shown) [compound 24, 5-(2-Hydroxy-2-pyridin-3-yl-ethyl)-2,8-dimethyl-2,3,4,5-tetrahydro-1H-pyrido[4,3-b]indol-4-ol] |
| 31 | 66 | 80 | 20 | 49 | 15 | 46 |  |  |  |  |  |  |  | OCc1ccc2c(c1)c1c(n2CC(O)c2ccncc2)CCN2CCCC12 (stereo not shown) [compound 29] |
| 13 | 8 | 12 | -18 | -5 | 0 | 17 |  |  |  |  |  |  |  | Cc1ccc2c(c1)c1c(n2CC(O)c2cccnc2)C(F)(F)CN(C)C1 (stereo not shown) [compound 30, 2-(4,4-difluoro-2,8-dimethyl-3,4-dihydro-1H-pyrido[4,3-b]indol-5(2H)-yl)-1-(pyridin-3-yl)ethanol] |
|  |  | 69 |  |  | -1 | 18 | 14 | 34 |  | 5 | 31 |  |  | Cc1ccc2c(c1)c1c(n2CC(C)(O)c2cnc3ccccc3c2)CCN(C)C1 (stereo not shown) [compound 32] |
| 6 | 8 | 38 | -10 | 4 | -12 | -1 |  |  |  |  |  |  |  | Cc1ccc2c(c1)c1c(n2CC(C)(O)c2ccc(C(=O)N(C)CC3CC3)nc2)CCN(C)C1 (stereo not shown) [compound 33, N-(cyclopropylmethyl)-5-(1-(2,8-dimethyl-3,4-dihydro-1H-pyrido[4,3-b]indol-5(2H)-yl)-2-hydroxypropan-2-yl)-N-methylpicolinamide] |
|  | 35 |  |  |  | 17 |  | 11 |  | 64 | 17 | 19 |  | 34 | Cc1ccc2c(c1)c1c(n2CC(C)(O)c2ccc(N(C)C)nc2)CCN(C)C1 (stereo not shown) [compound 39, 1-(2,8-dimethyl-3,4-dihydro-1H-pyrido[4,3-b]indol-5(2H)-yl)-2-(6-(dimethylamino)pyridin-3-yl)propan-2-ol] |
